These results are taken from PMC12799421, “Inhibition of constitutive activity of the atypical chemokine receptor 3 by the small-molecule inverse agonist VUF16840” (Molecular Pharmacology, 2025).

Structures are written as SMILES.

One assay deals with T1, NLuc-hACKR3 (Homo sapiens, UniProt P25106).
T1 construct: expressed in transfected cells; host or cells: HEK293T (membranes, transient expression)
As to the kind of experiment: NanoBRET ligand binding assay (CXCL12-AF647 displacement). The settings on record: 0.3 nM CXCL12-AF647, HEK293T membranes; read-out: IC50, displacement of CXCL12-A647 binding to NLuc-hACKR3. The method, then: Membranes of HEK293T cells that transiently expressed the NLuc-hACKR3 or HA-hACKR3 were produced as previously described.[23] Briefly, 2 million HEK293T cells were seeded per […] and were transfected the following day using a DNA/PEI-mix containing 0.25 μg plasmid DNA encoding for the ACKR3, 4.75 μg pcDEF3 plasmid DNA and 30 μg linear PEI. Two days after transfection, cells were collected in PBS (137 mM NaCl, 2.57 mM KCl, 1.5 mM KH2PO4, 8 mM Na2HPO4) and pelleted by centrifugation. Cell pellets were resuspended in ice-cold membrane buffer (15 mM Tris, 0.3 mM EDTA, 2 mM MgCl2, pH 7.4 at 4 °C) and dounce-homogenized on ice by plunging the pestle 10 times with 1500 rpm. […]
All dilutions were prepared in HBSS supplemented with 0.2% BSA. […] Total light intensity was measured at 460 nm wavelength with 80 nm bandwidth and separately for wavelengths ≥610 nm using the PHERAstar-FSX (BMG Labtech) with a dual emission filter. […]
The sigmoidal concentration-dependent displacement of binding of the probes [^3H]VUF15485 and CXCL12-A647 by unlabeled ligands were analyzed using GraphPad Prism 8, by fitting a one-site binding model to the data, to determine the pIC50. Mean pIC50 values were determined by averaging fitted values from individual experiments. […] Mean pEC50 values and pIC50 values were determined by averaging fitted values from individual experiments. […]
Background: Bioluminescence resonance energy transfer reports proximity on the nanometre scale.

Assay [1] deals with T2, ACKR3 (Homo sapiens, UniProt P25106).
T2 construct: expressed in transfected cells; host or cells: HEK293T
As to the kind of experiment: BRET ACKR3-Rab5a proximity (early endosome translocation) in HEK293T cells. Format: cell-based. The settings on record: for EC50: * VUF16840 as inverse agonist, read-out: Rab5a BRET pEC50 (converted). The method, then:
(§1) For 1·10^6 HEK293T cells, a transfection mix consisting of 2 μg plasmid DNA, 12 μg linear PEI in a total volume of 200 μL 150 mM NaCl was made and thoroughly vortexed. The transfection mix was incubated for 15 minutes and consequently added to a cell suspension with a final concentration of 3·10^5 cells/mL. For functional studies this cell suspension was immediately transferred to a poly-L-lysine-coated white 96-well plate, with 3·10^4 cells per well. […] For BRET-based membrane localization experiments, the 2 μg plasmid DNA consisted of ACKR3-NL (0.05 μg), mVenus-CAAX (0.25 μg), and pcDEF3 vector DNA without insert (1.7 μg).
The sigmoidal concentration-dependent displacement of binding of the probes [^3H]VUF15485 and CXCL12-A647 by unlabeled ligands were analyzed using GraphPad Prism 8, by fitting a one-site binding model to the data, to determine the pIC50. Mean pIC50 values were determined by averaging fitted values from individual experiments. Graphs depict the pooled data of all experiments. Similarly, sigmoidal, ligand-induced concentration-dependent activation or inhibition of the proximity between ACKR3 and the protein of interest was analyzed using GraphPad Prism 8, by fitting a 3-parameter concentration-response model to the data, to determine pEC50/pIC50 values. Mean pEC50 values and pIC50 values were determined by averaging fitted values from individual experiments. Graphs depict the pooled data of all experiments, for which values are normalized, per experiment, to the fold difference compared with basal signal.
(§2) Fig. 5 Inhibition of both constitutive as well as agonist-induced ACKR3 activity by VUF16840. […] The resulting proximity between ACKR3 and β-arrestin1 (A, E), GRK2 (B, F), or Rab5a (C, G) was determined by bioluminescence resonance energy transfer. Furthermore, an interaction between clathrin A and β-arrestin2 was measured by NLuc complementation, as was determined by quantifying the relative light units (D, H). […]

Assay [2] addresses T2, ACKR3. Briefly: NanoBiT clathrin A/β-arrestin2 interaction in ACKR3-expressing HEK293T cells. Format: cell-based. The method, then: as §1
Two days after transfection (vide supra), medium was aspirated and cells were reconstituted in HBSS with 0.05% BSA. […] After treating the cell with ligand furimazine was added (310 times diluted from stock concentration). Cells were incubating at 37 °C for another 3 minutes before detection of bioluminescent intensities.
Bioluminescence was measured using the PHERAstar-FSX and is a measure for the relative proximity of LgBiT- and SmBiT-tagged proteins and thus the occurrence of investigated protein–protein interaction.[38]
Fig. 5 Inhibition of both constitutive as well as agonist-induced ACKR3 activity by VUF16840. HEK293T cells were stimulated with increasing concentrations of VUF15485 or VUF16840 only (A–D), or increasing concentrations of VUF16840 in the presence of 100 nM VUF15485 (E–H). The resulting proximity between ACKR3 and β-arrestin1 (A, E), GRK2 (B, F), or Rab5a (C, G) was determined by bioluminescence resonance energy transfer. Furthermore, an interaction between clathrin A and β-arrestin2 was measured by NLuc complementation, as was determined by quantifying the relative light units (D, H). Depicted data is normalized as fold-basal and represents the mean ± SD of N experiments with triplicate measurements per experiment. N is specified in Supplemental Table 1.

The target of assay [3] is T2, ACKR3. Briefly: ACKR3 signaling and trafficking sensor assays summarised together (β-arrestin1, GRK2, Rab5a, clathrin A). Format: cell-based. The method, then: as §1
Next, it was explored whether VUF16840 could also affect a number of additional ACKR3 signaling or trafficking events. Both β-arrestin1 and GRK2 are known to be recruited to hACKR3 upon activation,[10]^,[23]^,[45],[46] and phosphorylation of the C-terminus is found to be crucial for ACKR3 internalization and β-arrestin1/2 recruitment,[10]^,[47]^,[48] mediated at least in part by GRK2.[10]^,[47] Additionally, clathrin A is a structural protein involved in the formation of clathrin-coated vesicles mediating receptor packaging and internalization, whereas Rab5a is a protein highly expressed in early endosomes.[32]^,[49] […] Agonist-induced internalization of ACKR3 was further monitored by measuring the interaction between clathrin A and β-arrestin 2 using a NanoBiT-based protein–protein interaction assay (Fig. 5D).
as §2

T2 sequence (P25106 whole entry): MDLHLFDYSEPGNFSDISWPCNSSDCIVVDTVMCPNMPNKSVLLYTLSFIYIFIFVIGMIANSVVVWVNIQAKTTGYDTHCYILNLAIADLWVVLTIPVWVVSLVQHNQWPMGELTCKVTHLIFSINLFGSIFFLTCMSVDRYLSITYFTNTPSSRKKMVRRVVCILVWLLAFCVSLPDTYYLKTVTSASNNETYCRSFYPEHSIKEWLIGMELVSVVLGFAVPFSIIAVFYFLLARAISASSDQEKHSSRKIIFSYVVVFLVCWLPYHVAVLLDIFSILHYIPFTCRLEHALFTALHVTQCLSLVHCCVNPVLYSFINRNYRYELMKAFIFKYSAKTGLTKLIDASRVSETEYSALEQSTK
T1 sequence (P25106 whole entry): as above

Regarding `COc1cc(C(=O)N(CCC2CCCN2C)CC(C)=Cc2ccccc2F)cc(OC)c1OC` (centres unmarked) [VUF15485, reference compound], the IC50 at NLuc-hACKR3 stood at 28 nM. Moreover, the EC50 at ACKR3 [1] is 7.94 nM; at ACKR3 [2] (NanoBiT, read-out: EC50, clathrin A/β-arrestin2 interaction) it was 6 nM; at ACKR3 [3] (agonist, range over assays, read-out: pEC50 values, recruitment of β-arrestin1 and GRK2 and translocation toward early endosomes (converted)), 7.94 to 39.8 nM.

For `COc1ccccc1CCNC(=O)C1CN(C2CCCCC2)CCC1NC(=O)c1cc(-c2ccc(F)cc2F)on1` (centres unmarked) [VUF16840], the IC50 on NLuc-hACKR3 was 7 nM; on ACKR3 [1] (versus 100 nM VUF15485, read-out: Rab5a BRET, Inhibition by VUF16840 (pIC50) (converted)), 5.01 nM; at ACKR3 [2] (versus 100 nM VUF15485, read-out: Clathrin A/ β-arrestin2 binding, Inhibition by VUF16840 (pIC50) (converted)), 50.1 nM; on ACKR3 [3] (100 nM VUF15485, range over assays, read-out: pIC50 values, inhibition of VUF15485-responses (converted)), 2 to 50.1 nM. Also, the EC50 at ACKR3 [1] is 1.58 nM; on ACKR3 [2] (* VUF16840 as inverse agonist, read-out: Clathrin A/ β-arrestin2 binding pEC50 (converted)), 10 nM; at ACKR3 [3] (inverse agonist, range over all assay setups, read-out: pEC50 values, inhibition of constitutive ACKR3-mediated responses (converted)), 1.58 to 10 nM.
